According to ChEMBL document CHEMBL6134864, “Discovery of FLT3-ITD Inhibitor Clifutinib: A Novel Biphenylacetylene Urea Derivative in Clinical Trials for the Treatment of Relapsed/Refractory FLT3-ITD+ Acute Myeloid Leukemia” (J Med Chem, 2025):

Key:
[1] = AUC last in mouse plasma at 2 mg/kg, iv measured up to 24 hrs by LC-MS/MS analysis; format: ADME, organism-based
[2] = Clearance in mouse plasma at 2 mg/kg, iv measured up to 24 hrs by LC-MS/MS analysis; format: ADME, organism-based
[3] = Volume of distribution at steady state in mouse plasma at 2 mg/kg, iv measured up to 24 hrs by LC-MS/MS analysis; format: ADME, organism-based; conditions: read-out: Vdss
[4] = Oral bioavailability in mouse plasma at 10 mg/kg measured up to 24 hrs by LC-MS/MS analysis; format: ADME, organism-based
[5] = Cmax in dog plasma at 1 mg/kg, iv measured up to 24 hrs by LC-MS/MS analysis; format: ADME, organism-based, Canis lupus familiaris
BaF3 = assay: Antiproliferative activity against mouse BaF3 cells harbouring FLT3-D835Y mutant assessed as inhibition of cell growth incubated for 72 hrs by celltiter-glo luminescent cell viability assay; format: functional, cell-based; conditions: BaF3, 72 h
[6] = target: Mast/stem cell growth factor receptor Kit (Homo sapiens, UniProt P10721); assay: Inhibition of human KIT by biochemical kinase binding assay
[7] = Tmax in NOD/SCID mouse tumor xenografted with human MV4-11 cells at […], po measured up to 24 hrs by LC-MS/MS analysis; format: ADME, organism-based, Neoplasm; conditions: dose 1.5 mg/kg
RPMI-8226 = assay: cells; conditions: Homo sapiens, RPMI-8226, 72 h
Description: Antiproliferative activity against human RPMI-8226 cells assessed as inhibition of cell growth incubated for 72 hrs by celltiter-glo luminescent cell viability assay

Sequence of Mast/stem cell growth factor receptor Kit (P10721 whole entry): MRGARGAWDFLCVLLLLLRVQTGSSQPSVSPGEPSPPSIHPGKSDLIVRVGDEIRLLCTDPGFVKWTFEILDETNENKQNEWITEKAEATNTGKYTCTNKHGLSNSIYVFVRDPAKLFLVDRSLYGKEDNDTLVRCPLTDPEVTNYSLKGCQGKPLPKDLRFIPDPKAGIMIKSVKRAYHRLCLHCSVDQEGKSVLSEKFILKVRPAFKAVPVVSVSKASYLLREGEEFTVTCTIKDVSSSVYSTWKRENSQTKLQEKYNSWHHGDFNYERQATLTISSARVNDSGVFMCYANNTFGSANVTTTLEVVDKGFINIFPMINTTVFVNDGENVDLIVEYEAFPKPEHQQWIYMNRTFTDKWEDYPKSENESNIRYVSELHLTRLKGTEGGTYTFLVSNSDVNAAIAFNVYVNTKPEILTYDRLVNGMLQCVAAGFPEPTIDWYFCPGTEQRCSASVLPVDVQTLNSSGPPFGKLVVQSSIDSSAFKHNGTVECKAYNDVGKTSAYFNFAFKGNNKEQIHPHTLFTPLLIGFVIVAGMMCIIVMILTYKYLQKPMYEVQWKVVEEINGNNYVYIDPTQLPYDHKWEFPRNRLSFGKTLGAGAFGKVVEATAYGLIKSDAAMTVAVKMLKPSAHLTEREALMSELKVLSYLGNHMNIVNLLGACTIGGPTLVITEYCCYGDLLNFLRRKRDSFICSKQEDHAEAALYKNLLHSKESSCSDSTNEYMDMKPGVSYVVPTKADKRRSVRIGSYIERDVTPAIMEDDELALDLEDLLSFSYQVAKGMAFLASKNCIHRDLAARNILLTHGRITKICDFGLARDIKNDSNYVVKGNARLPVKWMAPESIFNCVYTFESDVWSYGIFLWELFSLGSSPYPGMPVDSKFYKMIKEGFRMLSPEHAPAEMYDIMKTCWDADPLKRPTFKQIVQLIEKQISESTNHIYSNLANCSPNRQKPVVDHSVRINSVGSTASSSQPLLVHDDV

AUC(0-t) at 24 h [1]: 1740 ng·h/mL | clearance [2]: 18.9 mL/min/kg | Vd [3]: 1.36 L/kg | bioavailability [4]: 50.3% | Cmax [5]: 633 ng/mL | IC50 (BaF3): 0.0054 µM | IC50 [6]: 1.79 µM | Tmax at 24 h [7]: 6 h | IC50 (RPMI-8226): > 10 µM
Structure (SMILES): CC(C)(C)c1cc(NC(=O)Nc2ccc(C#Cc3ccc(OCCCN4CCOCC4)cc3)cc2)no1
